≈ marks a conversion by molar mass, not a printed value. Read-outs that look alike come from different tables or passages of the source.
Assays:
Jack bean urease = biological target: T1, Jack bean urease (Canavalia ensiformis, UniProt P07374); assay: biochemical
T1 construct: purchased Sigma Aldrich
From the text: (§1) The novel synthesized Morin derivatives were examined for in- vitro urease inhibitory action by determining the ammonia concentration released during the reaction by indophenol technique as described by Weatherburn as well as for antioxidant nature by determining the ability of compounds to donate hydrogen and electrons using DPPH method.
Urease enzyme inhibition investigation studies for all synthesized compounds were done by the method developed by Weatherburn named Indophenol against Jack Bean Urease. Briefly, incubation of solution of Jack bean protein 25 μL was done at temperature of 30 °C for a period of 15 min with 55 μL of buffers solution having 100 mM urea and 5 μL of test solution in 96-well plates. 45 μL phenol solution composing phenol 1% w/v and solution of sodium nitroprusside 0.005% w/v and alkali reagent 70 μL composed of sodium hydroxide 0.5% w/v and active sodium hypochloride solution 0.1% were mixed to every well. The measurement of increase in absorption at 625 nm was done after 50 min by help of a microplate reader (Molecular Device, USA). Readings were recorded in triplicate set in a final volume of 200 μL using thiourea as standard. Each assay was performed at pH 8.2 (0.01 M K2HPO4.3H2O, 0.01 M […] and 1 mM EDTA). Calculation of Inhibition in percentage of synthesized derivatives was done by the formula given as: I\% =AControl-ASample/AControl×100 where, Acontrol is control absorbance; Asample is test absorbance

[1] = DPPH radical scavenging (antioxidant) assay; details: DPPH 300 µM, 30 min, mean SEM
From the text: as §1
DPPH method was adopted for measuring the antioxidant nature of the synthesized derivatives. According to this method synthesized compounds were allowed to react for 0.5 h. at 37 °C with stable free radical, 1, 1-diphenyl-2-picrylhydrazyl radical (DPPH). The DPPH was taken in a concentration of 300 µM. Decrease in value of absorption at […] was measured after the period of incubation using a microplate reader using ascorbic acid as a standard. Molecule which can donate a proton to DPPH and cause its reduction act as an antioxidant. Following reduction deep violet coloured DPPH solution changes to yellow depending upon the nature of antioxidant compound, which brings a measurable decrease in value of absorption at 517 nm. The proton or electron donating capacity of the derivative was estimated from the fading of deep purple colored methanolic solution of 1, 1-diphenylpicrylhydrazyl (DPPH). Incubation of mixture was done at room temperature for 30 min and measurements were done at 517 against blank. Calculation of percentage inhibition was done by following formula: I\% =AControl-ASample/AControl×100 where, Acontrol is control absorbance; Asample is test absorbance

[2] = system: H. pylori bacterium (ATCC 43504, DSM 4867); assay: Anti-H. pylori activity, well diffusion technique; format: cell-based, Helicobacter pylori; details: 2500 µg per well, 24–48 h, 35 °C
Procedure: (§2) Compounds M2b and M2i which were found potent in urease inhibition and antioxidant activity as well as in terms of docking score were tested further against antibacterial efficiency against Helicobacter pylori ATCC 43504, DSM 4867 using AHA as a standard and DMSO as control. […] It could be concluded that compound M2i indicated excellent antibacterial action against H. Pylori, antioxidant and urease inhibitory activity.
(§3) Novel synthesized derivatives were investigated against H. pylori bacterium (ATCC 43504 DSM 4867, AHA as standard) for their antibacterial activity by using Well diffusion technique. The stock solution of compounds in DMSO (1000 μg/mL) were prepared. Cell suspension was prepared from culture grown on BHI broth. The cell suspensions of all the cultures were adjusted to 1–2 × 10^5cells/ml. Helicobacter pylori (100 µl) was inoculated by spread plate technique on agar plates (90 mm). Agar wells (5 mm) were made on H. pylori inoculated media and impregnated with 2500 µg of each sample and standard which were incubated @ 35 °C for 24–48 h with 5% CO2 and observed for zone of inhibition around the well. MIC was determined against Helicobacter pylori by micro broth dilution technique as per NCCLS method.

[3] = system: H. pylori bacterium (ATCC 43504, DSM 4867); assay: MIC against Helicobacter pylori, micro broth dilution technique; format: cell-based; details: NCCLS method
Procedure: as §2, §3

[4] = read-out: IC50 urease inhibition, Jack bean urease, indophenol method, pH 8.2, mean SEM

T1 sequence (P07374 whole entry, looked up): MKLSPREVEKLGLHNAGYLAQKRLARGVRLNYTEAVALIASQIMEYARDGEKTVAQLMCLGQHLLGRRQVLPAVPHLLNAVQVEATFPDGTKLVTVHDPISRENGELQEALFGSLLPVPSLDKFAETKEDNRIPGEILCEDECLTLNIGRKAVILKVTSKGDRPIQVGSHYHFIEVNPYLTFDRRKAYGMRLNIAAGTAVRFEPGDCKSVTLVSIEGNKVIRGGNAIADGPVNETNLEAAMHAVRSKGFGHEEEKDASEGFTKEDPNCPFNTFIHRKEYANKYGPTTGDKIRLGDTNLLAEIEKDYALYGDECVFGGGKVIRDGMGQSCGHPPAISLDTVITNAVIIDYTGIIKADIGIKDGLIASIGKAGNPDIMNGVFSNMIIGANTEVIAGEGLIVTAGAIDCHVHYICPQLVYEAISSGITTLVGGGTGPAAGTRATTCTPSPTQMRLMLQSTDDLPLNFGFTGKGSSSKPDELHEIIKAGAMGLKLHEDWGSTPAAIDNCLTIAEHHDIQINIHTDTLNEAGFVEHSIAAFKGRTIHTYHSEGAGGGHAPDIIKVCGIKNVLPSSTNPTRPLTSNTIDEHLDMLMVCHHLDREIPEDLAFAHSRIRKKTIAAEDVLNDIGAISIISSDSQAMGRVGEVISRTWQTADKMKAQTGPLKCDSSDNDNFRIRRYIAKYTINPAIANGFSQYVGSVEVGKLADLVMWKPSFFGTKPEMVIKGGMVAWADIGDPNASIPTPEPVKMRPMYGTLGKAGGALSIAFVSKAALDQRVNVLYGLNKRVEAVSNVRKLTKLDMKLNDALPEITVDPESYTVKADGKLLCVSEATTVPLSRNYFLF

Structure (SMILES) | IC50 (Jack bean urease) [µM] | IC50 [1] [µM] | also measured
Oc1ccc(-c2oc3cc(O)cc(O)c3c(=NC(=S)Nc3ccccc3)c2O)c(O)c1 [Compound M2a, N-((4E)-2-(2,4-dihydroxyphenyl)-3,5,7-trihydroxy-4H-chromen-4-ylidene)-N-phenylthiourea] | 12.71 ± 0.027 | 7.795 ± 0.003 | 
O=[N+]([O-])c1ccc(NC(=S)N=c2c(O)c(-c3ccc(O)cc3O)oc3cc(O)cc(O)c23)cc1 [Compound M2e, N-((4E)-2-(2,4-dihydroxyphenyl)-3,5,7-trihydroxy-4H-chromen-4-ylidene)-N-(4-nitrophenyl)thiourea] |  | 8.744 ± 0.008 | IC50 (Jack bean urease; [4]): 20.2 ± 0.01 µM
Oc1ccc(-c2oc3cc(O)cc(O)c3c(=NC(=S)Nc3ccccc3Cl)c2O)c(O)c1 [Compound M2b, N-(2-chlorophenyl)-N-((4E)-2-(2,4-dihydroxyphenyl)-3,5,7-trihydroxy-4H-chromen-4-ylidene)thiourea] |  | 7.37 ± 0.024 | 
O=[N+]([O-])c1cccc(NC(=S)N=c2c(O)c(-c3ccc(O)cc3O)oc3cc(O)cc(O)c23)c1 [Compound M2d, N-((4E)-2-(2,4-dihydroxyphenyl)-3,5,7-trihydroxy-4H-chromen-4-ylidene)-N-(3-nitrophenyl)thiourea] |  | 11.56 ± 0.013 | IC50 (Jack bean urease; [4]): 20.41 ± 0.031 µM
O=C1O[C@H]([C@@H](O)CO)C(O)=C1O [Ascorbic acid, reference compound] |  | 8.59 ± 0.004 | 
Oc1ccc(-c2oc3cc(O)cc(O)c3/c(=N/C(=S)NNc3ccccc3)c2O)c(O)c1 [Compound M4, (4Z)-4-(3,5,7-trihydroxy-2-(2,4-dihydroxyphenyl)-4H-chromen-4-ylidene)-1-phenylthiosemicarbazide] | 18.96 ± 0.011 | 8.099 ± 0.018 | 
O=[N+]([O-])c1ccccc1NC(=S)N=c1c(O)c(-c2ccc(O)cc2O)oc2cc(O)cc(O)c12 [Compound M2c, N-((4E)-2-(2,4-dihydroxyphenyl)-3,5,7-trihydroxy-4H-chromen-4-ylidene)-N-(2-nitrophenyl)thiourea] |  | 10.18 ± 0.006 | IC50 (Jack bean urease; [4]): 19.5 ± 0.005 µM
Oc1ccc(-c2oc3cc(O)cc(O)c3/c(=N/Nc3ccccc3)c2O)c(O)c1 [Compound M5, (4Z)-2-(2,4-dihydroxyphenyl)-4-(2-phenylhydrazinylidene)-4H-chromene-3,5,7-triol] | 17.68 ± 0.08 | 8.78 ± 0.008 | 
O=c1c(O)c(-c2ccc(O)cc2O)oc2cc(O)cc(O)c12 [Morin, 3,5,7, 2′, 4′-pentahydroxyflavone] | 21.77 ± 0.016 | 12.83 ± 0.028 | 
NC(=S)N/N=c1\c(O)c(-c2ccc(O)cc2O)oc2cc(O)cc(O)c12 [Compound M3, (1Z)-1-(3,5,7-trihydroxy-2-(2,4-dihydroxyphenyl)-4H-chromen-4-ylidene)thiosemicarbazide] | 17.9 ± 0.007 | 11.9 ± 0.031 | 
CC(=O)NO [AHA, acetohydroxamic acid] |  |  | zone of inhibition [2]: 9.00 ± 0.50 mm; MIC [3]: 1000 µg/mL (≈ 13.3 mM)
NC(N)=S [Thiourea, reference compound] |  |  | IC50 (Jack bean urease; Jack bean urease, indophenol method, pH 8.2, mean SEM, read-out: IC50 urease inhibition): 22.8 ± 0.011 µM

— paper PMC6661831, “Molecular docking, synthesis, kinetics study, structure–activity relationship and ADMET analysis of morin analogous as Helicobacter pylori urease inhibitors” (BMC Chemistry, 2019)
